Laboratory results: ChEMBL document CHEMBL1137662, “Effect of oral treatment with hexadecyloxypropyl-[(S)-9-(3-hydroxy-2- phosphonylmethoxypropyl)adenine] [(S)-HPMPA] or octadecyloxyethyl-(S)-HPMPA on cowpox or vaccinia virus infections in mice” (Antimicrob Agents Chemother, 2007)
Active and inactive are the calls of the source. The calls are words filed in the database; no cut-off is given here.

Legend:
Vaccinia virus [1] = experiment: Antiviral activity against Vaccinia virus WR infected BALB/c mouse assessed as mortality at 15 mg/kg, ip treated for 5 days after 72 hrs of viral inoculation; format: functional, Orthopoxvirus vaccinia; details: route intraperitoneal
Vaccinia virus [2] = experiment: Antiviral activity against Vaccinia virus WR infected BALB/c mouse assessed as mortality at 10 mg/kg, ip treated for 5 days after 24 hrs of viral inoculation; format: functional, Orthopoxvirus vaccinia; details: route intraperitoneal
Vaccinia virus [3] = experiment: Antiviral activity against Vaccinia virus WR infected BALB/c mouse assessed as reduction of viral titer in lung at 30 mg/kg, po treated for 5 days after 24 hrs of viral inoculation; format: functional, organism-based; set-up: dose 30 mg/kg; details: Orthopoxvirus vaccinia
[4] = Selectivity index, ratio of CC50 for HFF cells to EC50 for Vaccinia virus Copenhagen; format: toxicity, cell-based; details: human, read-out: Ratio CC50/EC50
Vaccinia virus [5] = experiment: Antiviral activity against Vaccinia virus WR infected BALB/c mouse assessed as mortality at 10 mg/kg, ip treated for 5 days after 72 hrs of viral inoculation; format: functional, Orthopoxvirus vaccinia; details: route intraperitoneal
[6] = Selectivity index, ratio of CC50 for HFF cells to EC50 for Cowpox virus Brighton; format: toxicity, cell-based; details: human, read-out: Ratio CC50/EC50
Cowpox virus [7] = experiment: Antiviral activity against Cowpox virus Brighton infected BALB/c mouse assessed as mortality at 10 mg/kg, ip treated for 5 days after 24 hrs of viral inoculation; format: functional, Cowpox virus (Brighton Red); details: route intraperitoneal
Vaccinia virus [8] = experiment: Antiviral activity against Vaccinia virus WR infected BALB/c mouse assessed as mortality at 15 mg/kg, ip treated for 5 days after 24 hrs of viral inoculation; format: functional, Orthopoxvirus vaccinia; details: route intraperitoneal
Vaccinia virus [9] = experiment: Antiviral activity against Vaccinia virus Copenhagen in HFF cells assessed as reduction of viral replication after 3 days; format: functional, organism-based; details: Orthopoxvirus vaccinia, 72 h
Cowpox virus [10] = experiment: Antiviral activity against Cowpox virus Brighton infected BALB/c mouse assessed as mean death day at 10 mg/kg, po treated for 5 days after 48 hrs of viral inoculation; format: functional, Cowpox virus (Brighton Red)
[11] = Selectivity index, ratio of CC50 for HFF cells to EC50 for Vaccinia virus WR; format: toxicity, cell-based; details: human, read-out: Ratio CC50/EC50
Cowpox virus [12] = experiment: Antiviral activity against Cowpox virus Brighton infected BALB/c mouse assessed as mortality at 10 mg/kg, ip treated for 5 days after 72 hrs of viral inoculation; format: functional, Cowpox virus (Brighton Red); details: route intraperitoneal
Cowpox virus [13] = experiment: Antiviral activity against Cowpox virus Brighton infected BALB/c mouse assessed as mortality at 10 mg/kg, ip treated for 5 days after 48 hrs of viral inoculation; format: functional, Cowpox virus (Brighton Red); details: route intraperitoneal
[14] = Cytotoxicity against HFF cells after 7 days; format: cell-based; details: human
Vaccinia virus [15] = experiment: Antiviral activity against Vaccinia virus WR infected BALB/c mouse assessed as mortality at 10 mg/kg, ip treated for 5 days after 48 hrs of viral inoculation; format: functional, Orthopoxvirus vaccinia; details: route intraperitoneal
Cowpox virus [16] = experiment: Antiviral activity against Cowpox virus Brighton in HFF cells assessed as reduction of viral replication after 3 days; format: functional, organism-based, Cowpox virus (Brighton Red); details: 72 h
Vaccinia virus [17] = experiment: Antiviral activity against Vaccinia virus WR infected BALB/c mouse assessed as mortality at 15 mg/kg, ip treated for 5 days after 48 hrs of viral inoculation; format: functional, Orthopoxvirus vaccinia; details: route intraperitoneal
Vaccinia virus [18] = experiment: Antiviral activity against Vaccinia virus WR in HFF cells assessed as reduction of viral replication after 3 days; format: functional, organism-based; details: Orthopoxvirus vaccinia, 72 h
[19] = Oral bioavailability in Swiss Webster mouse at 10 mg/kg; format: ADME, organism-based; details: in vivo

Structure (SMILES)	Activity (Vaccinia virus [1]) [%]	Activity (Vaccinia virus [2]) [%]	Activity (Vaccinia virus [3])	selectivity ratio [4]	Activity (Vaccinia virus [5]) [%]	selectivity ratio [6]	Activity (Cowpox virus [7]) [%]	Activity (Vaccinia virus [8]) [%]	EC50 (Vaccinia virus [9]) [µM]	Activity (Cowpox virus [10]) [days]	selectivity ratio [11]	Activity (Cowpox virus [12]) [%]	Activity (Cowpox virus [13]) [%]	CC50 at 168 h [14] [µM]	Activity (Vaccinia virus [15]) [%]	EC50 (Cowpox virus [16]) [µM]	Activity (Vaccinia virus [17]) [%]	EC50 (Vaccinia virus [18]) [µM]	bioavailability [19] [%]
Nc1ccn(C[C@@H](CO)OCP(=O)(O)O)c(=O)n1.O.O [CIDOFOVIR]	0	0	Active	> 12.2	143	> 9.1	0	0	26	11	> 10.9	0	0	> 317	0	35	100		
CCCCCCCCCCCCCCCCOCCCOP(=O)(O)CO[C@H](CO)Cn1ccc(N)nc1=O [BRINCIDOFOVIR]				39		52			0.8		28			31		0.6		1.1	
Nc1ncnc2c1ncn2C[C@@H](CO)OCP(=O)(O)O				> 107		> 72			2.7		> 44			> 289		4		6.5	24
